Source: patent US20230136941A1, “IMPROVING PLANT NUTRITIONAL VALUE AND GROWTH THROUGH ENHANCEMENT OF ESSENTIAL AMINO ACID LEVELS” (Board of Trustees of Michigan State University, priority 2020, published 2023)

Key:
[1] = system: wild type cotyledon epidermal cells expressing GFP-δTIP; test: Confocal imaging of vacuole morphology after temporal chemical treatment of wild type seedlings; conditions: 5 μM AZD-8055, 2 or 4 hours
[2] = system: wild type (Col-0), eva1, ipms1-4 and ipms1-5 seedlings; test: Primary root elongation of seedlings germinated and grown on medium containing chemical inhibitors (chronic treatment); assay type: in vivo, Arabidopsis thaliana
Procedure: Except for chronical treatments with specified chemicals, Arabidopsis seeds were stratified and grown on medium containing half-strength Linsmaier and Skoog nutrients (½ LS; Caisson Labs, LSP03), 1% sucrose and 0.4% phytagel (Sigma-Aldrich, P8169) in chambers configured with 21° C. and 16-hour light: 8-hour dark cycle.
In another pharmaceutical examination using AZD-8055, wortmannin and Lat B (FIG. 6A-6G, 6L-6Q), wild type (Col-0), eva1, ipms1-4 and ipms1-5 lines germinated and grew on vertically staged Petri dishes containing Arabidopsis growth medium containing specific chemical inhibitors.

[3] = system: eva1 cotyledon epidermal cells expressing GFP-δTIP; test: Confocal imaging of vacuole morphology after temporal chemical treatment of eva1 seedlings; assay type: cell-based, Arabidopsis thaliana
[4] = system: wild type (Col-0), ipms1-4 and ipms1-5 seedlings; test: Root growth after transplant of 10-day old seedlings to Lat B medium; assay type: in vivo, Arabidopsis thaliana
Procedure: To examine the effect of latrunculin B (Lat B) on root elongation (FIG. 6L-6Q), wild type (Col-0), ipms1-4 and ipms1-5 lines germinated and grew on horizontally staged Petri dishes containing Arabidopsis growth medium (½ LS, 1% sucrose and 0.4% phytagel). 10-day old seedlings were transplanted to Petri dishes containing ½ LS, 1% sucrose and 1% Agar (Acumedia, 7558A) medium containing DMSO or 50 nM Lat B or 100 nM Lat B. Photographs were acquired immediately after the transplant and the Petri dishes were vertically staged in a Percival chamber.
Photographs were also acquired 8 days after the transplant.
Experiments were designed to validate this hypothesis by testing the sensitivity of the ipms1 alleles to the F-actin depolymerizing reagent latrunculin B (Lat B) (Cao et al., 2016). The primary root length of 10-day old ipms1-4 and ipms1-5 was approximately 50% of WT (FIG. 4H-4I). Seedlings of all genotypes were then transferred to medium containing DMSO or 50 nM or 100 nM Lat B in DMSO.

[5] = system: omr1-11^D cotyledon epidermal cells; test: ER strand phenotype of omr1-11^D after Torin2 treatment; assay type: cell-based, Arabidopsis thaliana; conditions: 2-hour Torin2 treatment
[6] = nine-day old seedlings grown on Lat B medium (FIG. 6P-6Q)
[7] = 25 μM Lat B, two-hour treatment

SMILES: COc1ccc(-c2ccc3c(N4CCOC[C@@H]4C)nc(N4CCOC[C@@H]4C)nc3n2)cc1CO [AZD-8055]
- morphology of the central vacuole and trans-vacuolar strands in wild type cells [1]: did not exhibit significant changes
- ipms1 primary root elongation ([2]; AZD-8055 higher concentrations (0.4, 0.6 and 1.0 μM), chronic): inhibited
- ipms1 primary root elongation ([2]; AZD-8055 lower concentrations (0.1 and 0.2 μM), chronic): promoted
- small vacuoles and trans-vacuolar strands in eva1 ([3]; 5 μM AZD-8055, 2 hours): reduced in appearance
- vacuole appearance of eva1 cells ([3]; 5 μM AZD-8055, 4 hours): indistinguishable from wild type
- vacuolar mutant phenotypes of eva1 (FIG. 6A-6F legend) ([3]; legend prints 5 mM AZD-8055, 2 and 4 hours): rescues vacuolar mutant phenotypes of eva1

SMILES: C/C1=C/C(=O)O[C@@H]2C[C@@H](CC[C@H](C)/C=C\CC1)O[C@@](O)([C@@H]1CSC(=O)N1)C2 [Lat B, latrunculin B]
- primary root length of ipms1-4 and ipms1-5 compared to WT ([4]; 50 nM Lat B, 8 days after transplant (DMSO medium: approximately 65%)): 80%
- formation of lateral roots in WT seedlings ([4]; 50 nM or 100 nM Lat B, 8 days after transplant): promoted the formation of lateral roots
- primary root length of ipms1-4 and ipms1-5 compared to WT ([4]; 100 nM Lat B, 8 days after transplant): not significantly different from WT
- promotion of root elongation ([2]; Lat B treatment, chronic, increasing concentrations): not observed
- primary root length vs DMSO control, ipms1 mutants [2, 6]: less effects
- primary root length vs DMSO control, wild type [2, 6]: significant differences
- small vacuoles in eva1 [3, 7]: persisted
- trans-vacuolar strands in eva1 [3, 7]: disappeared

SMILES: Nc1ccc(-c2ccc3ncc4ccc(=O)n(-c5cccc(C(F)(F)F)c5)c4c3c2)cn1 [Torin2, 9-(6-aminopyridin-3-yl)-1-(3-(trifluoromethyl)phenyl) benzo[h][1,6]naphthyridin-2(1H)-one]
- enhanced ER strands in omr1-11^D [5]: recovered
- presumably unfused vacuoles and trans-vacuolar strands in eva1 ([3]; 1 μM Torin2, 2 hours): no longer present
